tested on: PC3 cells; test: xCELLigence RTCA real-time cell invasion assay (CIM plate, Matrigel) on PC3 prostate cancer cells; type: cell-based; details: Homo sapiens, PC-3, compound 25 uM to 1 uM, cell index monitored for 72 hours, four-parameter dose-response curve, read-out: IC50, Effect of compounds on the invention on prostate cancer cells
How it was run: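 PC3 invasion through 5% Matrigel-coated CIM-plate upper chambers was tracked as impedance cell index over 72 h. Compound at 25–1 µM was present in both chambers, with 3×10^4 cells seeded in serum-free RPMI. IC50 came from a four-parameter fit, and IC90 was derived from IC50 and the Hill slope.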

Structure (SMILES) | IC50 [µM]
CN1CCN(c2cccc(NC(=O)c3cc4nc(N5Cc6ccccc6C5)cc(-c5cn[nH]c5)n4n3)c2)CC1 [Compound 48, 5-(isoindolin-2-yl)-N-(3-(4-methylpiperazin-1-yl)phenyl)-7-(1H-pyrazol-4-yl)pyrazolo[1,5-a]pyrimidine-2-carboxamide] | 2.77
CN(Cc1ccccc1)c1cc(-c2cn[nH]c2)n2nc(C(=O)Nc3cccc(F)c3)cc2n1 [Compound 36, 5-(benzyl(methyl)amino)-N-(3-fluorophenyl)-7-(1H-pyrazol-4-yl)pyrazolo[1,5-a]pyrimidine-2-carboxamide] | 1.47
COc1cc(NC(=O)c2cc3nc(N4Cc5ccccc5C4)cc(-c4cn[nH]c4)n3n2)ccc1Cl [Compound 53, N-(4-chloro-3-methoxyphenyl)-5-(isoindolin-2-yl)-7-(1H-pyrazol-4-yl)pyrazolo[1,5-a]pyrimidine-2-carboxamide] | 2.76
C[C@@H](c1ccccc1)N(C)c1cc(-c2cn[nH]c2)n2nc(C(=O)Nc3ccccc3)cc2n1 [Compound 16, (S)-5-(methyl(1-phenylethyl)amino)-N-phenyl-7-(1H-pyrazol-4-yl)pyrazolo[1,5-a]pyrimidine-2-carboxamide] | 150
CN(Cc1ccccc1)c1cc(-c2cn[nH]c2)n2nc(C(=O)Nc3ccncc3)cc2n1 [Compound 7, 5-(benzyl(methyl)amino)-7-(1H-pyrazol-4-yl)-N-(pyridin-4-yl)pyrazolo[1,5-a]pyrimidine-2-carboxamide] | 9.49
CC(C)c1c(C(=O)Nc2cccc(OC3CCOCC3)c2)nn2c(-c3cn[nH]c3)cc(N3Cc4ccc(F)cc4C3)nc12 [Compound 121, 5-(5-fluoroisoindolin-2-yl)-3-isopropyl-7-(1H-pyrazol-4-yl)-N-(3-((tetrahydro-2H-pyran-4-yl)oxy)phenyl)pyrazolo[1,5-a]pyrimidine-2-carboxamide] | 2.75
O=C(Nc1cccc(OC(F)(F)F)c1)c1cc2nc(N3Cc4ccccc4C3)cc(-c3cn[nH]c3)n2n1 [Compound 26, 5-(isoindolin-2-yl)-7-(1H-pyrazol-4-yl)-N-(3-(trifluoromethoxy)phenyl)pyrazolo[1,5-a]pyrimidine-2-carboxamide] | 9.74
CCOc1ccc(NC(=O)c2cc3nc(N4Cc5ccccc5C4)cc(-c4cn[nH]c4)n3n2)cc1 [Compound 55, N-(4-ethoxyphenyl)-5-(isoindolin-2-yl)-7-(1H-pyrazol-4-yl)pyrazolo[1,5-a]pyrimidine-2-carboxamide] | 7.86
COc1cccc(NC(=O)c2nn3c(-c4cn[nH]c4)cc(N(C)Cc4ccccc4)nc3c2C(C)C)c1 [Compound 75, 5-(benzyl(methyl)amino)-3-isopropyl-N-(3-methoxyphenyl)-7-(1H-pyrazol-4-yl)pyrazolo[1,5-a]pyrimidine-2-carboxamide] | 5.68
COc1ccccc1CN(C)c1cc(-c2cn[nH]c2)n2nc(C(=O)Nc3ccc(Cl)cc3)cc2n1 [Compound 40, N-(4-chlorophenyl)-5-((2-methoxybenzyl)(methyl)amino)-7-(1H-pyrazol-4-yl)pyrazolo[1,5-a]pyrimidine-2-carboxamide] | 3.96
CC(=O)Nc1cccc(NC(=O)c2nn3c(-c4cn[nH]c4)cc(N4Cc5ccc(Cl)cc5C4)nc3c2C(C)C)c1 [Compound 82, N-(3-acetamidophenyl)-5-(5-chloroisoindolin-2-yl)-3-isopropyl-7-(1H-pyrazol-4-yl)pyrazolo[1,5-a]pyrimidine-2-carboxamide] | 2.92
CC(=O)Nc1cccc(NC(=O)c2nn3c(-c4cn[nH]c4)cc(N4Cc5ccccc5C4)nc3c2C2CC2)c1 [Compound 97, N-(3-acetamidophenyl)-3-cyclopropyl-5-(isoindolin-2-yl)-7-(1H-pyrazol-4-yl)pyrazolo[1,5-a]pyrimidine-2-carboxamide] | 1.08
COc1cccc(NC(=O)c2nn3c(-c4cn[nH]c4)cc(N4Cc5cccc(Cl)c5C4)nc3c2C(C)C)c1 [Compound 126, 5-(4-chloroisoindolin-2-yl)-3-isopropyl-N-(3-methoxyphenyl)-7-(1H-pyrazol-4-yl)pyrazolo[1,5-a]pyrimidine-2-carboxamide] | 1.21
O=C(Nc1ccccc1)c1cc2nc(N3Cc4ccccc4C3)cc(-c3cn[nH]c3)n2n1 [Compound 23, 5-(isoindolin-2-yl)-N-phenyl-7-(1H-pyrazol-4-yl)pyrazolo[1,5-a]pyrimidine-2-carboxamide] | 2.83

Results, then the molecule that gave them:

IC50 [µM] | Structure (SMILES)
2.59 | COc1cccc(NC(=O)c2cc3nc(N4Cc5ccccc5C4)cc(-c4cnn(C)c4)n3n2)c1 [Compound 57, 5-(isoindolin-2-yl)-N-(3-methoxyphenyl)-7-(1-methyl-1H-pyrazol-4-yl)pyrazolo[1,5-a]pyrimidine-2-carboxamide]
10.8 | CN(Cc1cccc(Cl)c1)c1cc(-c2cn[nH]c2)n2nc(C(=O)Nc3ccc(Cl)cc3)cc2n1 [Compound 45, 5-((3-chlorobenzyl)(methyl)amino)-N-(4-chlorophenyl)-7-(1H-pyrazol-4-yl)pyrazolo[1,5-a]pyrimidine-2-carboxamide]
10.1 | Cn1cc(-c2cc(N3Cc4ccccc4C3)nc3cc(C(=O)Nc4cccc(O)c4)nn23)cn1 [Compound 58, N-(3-hydroxyphenyl)-5-(isoindolin-2-yl)-7-(1-methyl-1H-pyrazol-4-yl)pyrazolo[1,5-a]pyrimidine-2-carboxamide]
2.36 | CC(C)c1c(C(=O)Nc2ccc(N3CCOCC3)cc2)nn2c(-c3cn[nH]c3)cc(N3Cc4ccc(Cl)cc4C3)nc12 [Compound 107, 5-(5-chloroisoindolin-2-yl)-3-isopropyl-N-(4-morpholinophenyl)-7-(1H-pyrazol-4-yl)pyrazolo[1,5-a]pyrimidine-2-carboxamide]
2.02 | CC(C)c1c(C(=O)Nc2ccc(N3CCOCC3)cc2)nn2c(-c3cn[nH]c3)cc(N3Cc4ccc(F)cc4C3)nc12 [Compound 106, 5-(5-fluoroisoindolin-2-yl)-3-isopropyl-N-(4-morpholinophenyl)-7-(1H-pyrazol-4-yl)pyrazolo[1,5-a]pyrimidine-2-carboxamide]
2.83 | CC(C)Oc1ccc(NC(=O)c2cc3nc(N4Cc5ccccc5C4)cc(-c4cn[nH]c4)n3n2)cc1 [Compound 56, 5-(isoindolin-2-yl)-N-(4-isopropoxyphenyl)-7-(1H-pyrazol-4-yl)pyrazolo[1,5-a]pyrimidine-2-carboxamide]
8.97 | CN(Cc1ccccc1)c1cc(-c2cn[nH]c2)n2nc(C(=O)Nc3ccccc3C(F)(F)F)cc2n1 [Compound 34, 5-(benzyl(methyl)amino)-7-(1H-pyrazol-4-yl)-N-(2-(trifluoromethyl)phenyl)pyrazolo[1,5-a]pyrimidine-2-carboxamide]
3.71 | CN1CCN(c2cccc(NC(=O)c3cc4nc(N(C)Cc5ccccc5)cc(-c5cn[nH]c5)n4n3)c2)CC1 [Compound 22, 5-(benzyl(methyl)amino)-N-(3-(4-methylpiperazin-1-yl)phenyl)-7-(1H-pyrazol-4-yl)pyrazolo[1,5-a]pyrimidine-2-carboxamide]
2.21 | CN(Cc1ccccc1)c1cc(-c2cn[nH]c2)n2nc(C(=O)Nc3ccccc3Cl)cc2n1 [Compound 31, 5-(benzyl(methyl)amino)-N-(2-chlorophenyl)-7-(1H-pyrazol-4-yl)pyrazolo[1,5-a]pyrimidine-2-carboxamide]
11.7 | CN(Cc1ccccc1)c1cc(-c2cn[nH]c2)n2nc(C(=O)Nc3cccnc3)cc2n1 [Compound 6, 5-(benzyl(methyl)amino)-7-(1H-pyrazol-4-yl)-N-(pyridin-3-yl)pyrazolo[1,5-a]pyrimidine-2-carboxamide]
1.99 | CCOc1cccc(NC(=O)c2cc3nc(N4Cc5ccccc5C4)cc(-c4cn[nH]c4)n3n2)c1 [Compound 27, N-(3-ethoxyphenyl)-5-(isoindolin-2-yl)-7-(1H-pyrazol-4-yl)pyrazolo[1,5-a]pyrimidine-2-carboxamide]
4.65 | COc1cccc(NC(=O)c2cc3nc(N4Cc5ccc(F)cc5C4)cc(-c4cn[nH]c4)n3n2)c1 [Compound 63, 5-(5-fluoroisoindolin-2-yl)-N-(3-methoxyphenyl)-7-(1H-pyrazol-4-yl)pyrazolo[1,5-a]pyrimidine-2-carboxamide]
3.71 | Cc1noc(C)c1NC(=O)c1cc2nc(N(C)Cc3ccccc3)cc(-c3cn[nH]c3)n2n1 [Compound 10, 5-(benzyl(methyl)amino)-N-(3,5-dimethylisoxazol-4-yl)-7-(1H-pyrazol-4-yl)pyrazolo[1,5-a]pyrimidine-2-carboxamide]
2.43 | COc1cccc(NC(=O)c2cc3nc(N4Cc5ccccc5C4)cc(-c4cn[nH]c4)n3n2)c1 [Compound 25, 5-(isoindolin-2-yl)-N-(3-methoxyphenyl)-7-(1H-pyrazol-4-yl)pyrazolo[1,5-a]pyrimidine-2-carboxamide]
6.47 | COc1ccc(NC(=O)c2nn3c(-c4cn[nH]c4)cc(N4Cc5ccccc5C4)nc3c2C2CC2)cc1 [Compound 96, 3-cyclopropyl-5-(isoindolin-2-yl)-N-(4-methoxyphenyl)-7-(1H-pyrazol-4-yl)pyrazolo[1,5-a]pyrimidine-2-carboxamide]
5.94 | Cc1c(C(=O)Nc2cccc(OC(F)(F)F)c2)nn2c(-c3cn[nH]c3)cc(N3Cc4ccccc4C3)nc12 [Compound 67, 5-(isoindolin-2-yl)-3-methyl-7-(1H-pyrazol-4-yl)-N-(3-(trifluoromethoxy)phenyl)pyrazolo[1,5-a]pyrimidine-2-carboxamide]
2.59 | CN(Cc1ccccc1)c1cc(-c2cn[nH]c2)n2nc(C(=O)Nc3cccc(C(F)(F)F)c3)cc2n1 [Compound 33, 5-(benzyl(methyl)amino)-7-(1H-pyrazol-4-yl)-N-(3-(trifluoromethyl)phenyl)pyrazolo[1,5-a]pyrimidine-2-carboxamide]
5.87 | Cc1c(C(=O)Nc2cccc(OC(F)(F)F)c2)nn2c(-c3cn[nH]c3)cc(N(C)Cc3ccccc3)nc12 [Compound 70, 5-(benzyl(methyl)amino)-3-methyl-7-(1H-pyrazol-4-yl)-N-(3-(trifluoromethoxy)phenyl)pyrazolo[1,5-a]pyrimidine-2-carboxamide]
